Measurements: patent publication US10450378B2, “Cytotoxic and anti-mitotic compounds, and methods of using the same” (priority 2014, dated 2019)
Where two headings read alike, the source gives them in different places.

What was measured:
Test in all cases: Cellular cytotoxicity of compounds of Formula I, Example 3.1
Assay type in all cases: cell-based
[1] = test system: Human Pancreatic cell line BxPC-3; details: five nights, CellTiter-Glo
Description: (§1) Compounds were tested on one or more of Human T-cell leukemia cell line Jurkat (ATCC: TIB-152); Human breast cancer cell lines HCC1954 (ATCC: CRL-2338) and JIMT-1 (DSMZ: ACC 589); Human Pancreatic cell line BxPC-3 (ATCC: CRL.1687), Human ovarian adenocarcinoma cell line SK-OV-3 (ATCC: HTB-77) and Human gastric carcinoma cell line NCI-N87 (ATCC: CRL. 5822); to assess their cytotoxicity.
(§2) Briefly, cells were obtained from commercial sources and cultured as described in the product sheet provided. Cells were removed from their culture vessels and the resulting cell suspension was counted using a ViCell (Beckman Coulter), then seeded at 25,000 cells/mL (2,500 cells/well) in Costar 3904 black walled, flat bottomed 96-well plates (cells were seeded in the inner 60 wells of 96-well TC plates, and outer edge wells filled with water). Adherent cell lines were incubated for one night at 37° C./5% CO2 atmosphere to allow the cells to attach to the microtiter plate surface, while suspension (Jurkat) cells were plated immediately before use. Cytotoxins were dissolved and serially diluted in dimethyl sulfoxide and then the solutions were added to complete growth medium at five-times the desired maximum final concentration. The cytotoxins were then titrated in growth medium, normally 1:3, over eight steps. A control with no test article present (growth medium alone) was included on each microtiter plate in sextuplicate. The prepared toxin titrations were added (25 μL/well) in triplicate to each cell line assayed. The cells and titrations were incubated at 37° C./5% CO2 for three nights (Jurkat) and five nights (all other cell lines). After the incubation, cell viability was measured using CellTiter-Glo® by adding 30 μL of prepared CellTiter-Glo® reagent to each assay well. The mixtures were incubated for at least twenty minutes in the dark prior to measuring emitted luminescence using a microplate luminometer (500 ms integration time). The collected relative luminescence units (RLU) were converted to % cytotoxicity using the growth medium alone control mentioned above (% Cytotoxicity=1-[well RLU/average medium alone control RLU]×100%).

[2] = test system: Human gastric carcinoma cell line NCI-N87; details: five nights, CellTiter-Glo
Description: as §1, §2

[3] = test system: Human T-cell leukemia cell line Jurkat; details: Homo sapiens, Jurkat, read-out: EC50 (nM) Jurkat
Description: as §1, §2

In the case of `CC[C@H](C)[C@@H]([C@@H](CC(=O)N1CCC[C@H]1[C@H](OC)[C@@H](C)C(=O)NS(=O)(=O)c1ccc(N)cc1)OC)N(C)C(=O)[C@@H](NC(=O)C(C)(C)N)C(C)C` [Compound 17, (S)-2-(2-Amino-2-methylpropanamido)-N-((3R,4S,5S)-1-((S)-2-((1R,2R)-3-((4-aminophenyl)sulfonamido)-1-methoxy-2-methyl-3-oxopropyl)pyrrolidin-1-yl)-3-methoxy-5-methyl-1-oxoheptan-4-yl)-N,3-dimethylbutanamide], the EC50 [1] is reported as > 100 nM, the EC50 [2] is reported as > 100 nM and the EC50 ([3]; three nights, CellTiter-Glo) is reported as 30.5 nM.

For `CC[C@H](C)[C@@H]([C@@H](CC(=O)N1CCC[C@H]1[C@H](OC)[C@@H](C)C(=O)NS(=O)(=O)c1ccc(CNC(=O)C(F)(F)F)cc1)OC)N(C)C(=O)[C@@H](NC(=O)[C@H](C(C)C)N(C)C)C(C)C` [Compound 21, (S)-2-((S)-2-(Dimethylamino)-3-methylbutanamido)-N-((3R,4S,5S)-3-methoxy-1-((S)-2-((1R,2R)-1-methoxy-2-methyl-3-oxo-3-((4-((2,2,2-trifluoroacetamido)methyl)phenyl)sulfonamido)propyl)pyrrolidin-1-yl)-5-methyl-1-oxoheptan-4-yl)-N,3-dimethylbutanamide], the EC50 [1] was > 100 nM, the EC50 [2] was > 300 nM and the EC50 ([3]; three nights, CellTiter-Glo) was ~100 nM.

`CC[C@H](C)[C@@H]([C@@H](CC(=O)N1CCC[C@H]1[C@H](OC)[C@@H](C)C(=O)NS(=O)(=O)c1ccc(NC(=O)C(F)(F)F)cc1)OC)N(C)C(=O)[C@@H](NC(=O)[C@H]1CCCCN1C(C)C)C(C)C` [Compound 15, (R)-1-Isopropyl-N-((S)-1-(((3R,4S,5S)-3-methoxy-1-((S)-2-((1R,2R)-1-methoxy-2-methyl-3-oxo-3-((4-(2,2,2-trifluoroacetamido)phenyl)sulfonamido)propyl)pyrrolidin-1-yl)-5-methyl-1-oxoheptan-4-yl)(methyl)amino)-3-methyl-1-oxobutan-2-yl)piperidine-2-carboxamide] was tested, and the EC50 [1] was 14.5 nM, the EC50 [2] was 11.7 nM and the EC50 ([3]; three nights, CellTiter-Glo) was 10.1 nM.

With `CC[C@H](C)[C@@H]([C@@H](CC(=O)N1CCC[C@H]1[C@H](OC)[C@@H](C)C(=O)NS(=O)(=O)Cc1ccc(CNC(=O)C(F)(F)F)cc1)OC)N(C)C(=O)[C@@H](NC(=O)[C@H](C(C)C)N(C)C)C(C)C` [Compound 25, (S)-2-((S)-2-(Dimethylamino)-3-methylbutanamido)-N-((3R,4S,5S)-3-methoxy-1-((S)-2-((1R,2R)-1-methoxy-2-methyl-3-oxo-3-(((4-((2,2,2-trifluoroacetamido)methyl)phenyl)methyl)sulfonamido)propyl)pyrrolidin-1-yl)-5-methyl-1-oxoheptan-4-yl)-N,3-dimethylbutanamide] the EC50 [1] was > 100 nM, the EC50 [2] was > 100 nM and the EC50 ([3]; three nights, CellTiter-Glo) was 34.3 nM.

In the case of `CC[C@H](C)[C@@H]([C@@H](CC(=O)N1CCC[C@H]1[C@H](OC)[C@@H](C)C(=O)N[C@@H](Cc1ccccc1)C(=O)NS(=O)(=O)c1ccc(CN)cc1)OC)N(C)C(=O)[C@@H](NC(=O)[C@H](C(C)C)N(C)C)C(C)C` [Compound 24, (S)-N-((3R,4S,5S)-1-((S)-2-((1R,2R)-3-(((S)-1-((4-(Aminomethyl)phenyl)sulfonamido)-1-oxo-3-phenylpropan-2-yl)amino)-1-methoxy-2-methyl-3-oxopropyl)pyrrolidin-1-yl)-3-methoxy-5-methyl-1-oxoheptan-4-yl)-2-((S)-2-(dimethylamino)-3-methylbutanamido)-N,3-dimethylbutanamide], the EC50 [1] is reported as > 100 nM, the EC50 [2] is reported as > 100 nM and the EC50 ([3]; three nights, CellTiter-Glo) is reported as ~100 nM.

In the case of `CC[C@H](C)[C@@H]([C@@H](CC(=O)N1CCC[C@H]1[C@H](OC)[C@@H](C)C(=O)N[C@@H](Cc1ccccc1)C(=O)NS(=O)(=O)c1ccc(C2(N)CC2)cc1)OC)N(C)C(=O)[C@@H](NC(=O)[C@H](C(C)C)N(C)C)C(C)C` [Compound 32, (S)-N-((3R,4S,5S)-1-((S)-2-((1R,2R)-3-((S)-1-(4-(1-Aminocyclopropyl)phenylsulfonamido)-1-oxo-3-phenylpropan-2-ylamino)-1-methoxy-2-methyl-3-oxopropyl)pyrrolidin-1-yl)-3-methoxy-5-methyl-1-oxoheptan-4-yl)-2-((S)-2-(dimethylamino)-3-methylbutanamido)-N,3-dimethylbutanamide], the EC50 ([3]; three nights, CellTiter-Glo) is reported as > 100 nM.

For `CC[C@H](C)[C@@H]([C@@H](CC(=O)N1CCC[C@H]1[C@H](OC)[C@@H](C)C(=O)NS(=O)(=O)c1ccc(C(=O)OC)cc1)OC)N(C)C(=O)[C@@H](NC(=O)[C@H](C(C)C)N(C)C)C(C)C` [Compound 34, Methyl 4-(N-((2R,3R)-3-((S)-1-((3R,4S,5S)-4-((S)-2-((S)-2-(Dimethylamino)-3-methylbutanamido)-N,3-dimethylbutanamido)-3-methoxy-5-methylheptanoyl)pyrrolidin-2-yl)-3-methoxy-2-methylpropanoyl)sulfamoyl)benzoate], the EC50 [1] was > 300 nM, the EC50 [2] was > 300 nM and the EC50 ([3]; three nights, CellTiter-Glo) was > 100 nM.

In the case of `CC[C@H](C)[C@@H]([C@@H](CC(=O)N1CCC[C@H]1[C@H](OC)[C@@H](C)C(=O)NS(=O)(=O)c1ccc(N)cc1)OC)N(C)C(=O)[C@@H](NC(=O)[C@@H](NC)C(C)(C)c1ccccc1)C(C)C` [Compound 19, (S)-N-((3R,4S,5S)-1-((S)-2-((1R,2R)-3-((4-Aminophenyl)sulfonamido)-1-methoxy-2-methyl-3-oxopropyl)pyrrolidin-1-yl)-3-methoxy-5-methyl-1-oxoheptan-4-yl)-N,3-dimethyl-2-((S)-3-methyl-2-(methylamino)-3-phenylbutanamido)butanamide], the EC50 [1] is reported as 10.2 nM, the EC50 [2] is reported as 12.8 nM and the EC50 ([3]; three nights, CellTiter-Glo) is reported as 2.2 nM.

`CC[C@H](C)[C@@H]([C@@H](CC(=O)N1CCC[C@H]1[C@H](OC)[C@@H](C)C(=O)N[C@@H](Cc1ccccc1)C(=O)NS(=O)(=O)Cc1ccc(CNC(=O)C(F)(F)F)cc1)OC)N(C)C(=O)[C@@H](NC(=O)[C@H](C(C)C)N(C)C)C(C)C` [Compound 27, (S)-2-((S)-2-(Dimethylamino)-3-methylbutanamido)-N-((3R,4S,5S)-3-methoxy-1-((S)-2-((1R,2R)-1-methoxy-2-methyl-3-oxo-3-(((S)-1-oxo-3-phenyl-1-(((4-((2,2,2-trifluoroacetamido)methyl)phenyl)methyl)sulfonamido)propan-2-yl)amino)propyl)pyrrolidin-1-yl)-5-methyl-1-oxoheptan-4-yl)-N,3-dimethylbutanamide] was tested, and the EC50 [1] was 19 nM, the EC50 [2] was 17.4 nM and the EC50 [3] was 24.2 nM.

For `CC[C@H](C)[C@@H]([C@@H](CC(=O)N1CCC[C@H]1[C@H](OC)[C@@H](C)C(=O)N[C@@H](Cc1ccccc1)C(=O)NS(=O)(=O)c1ccc(C2(NC(=O)C(F)(F)F)CC2)cc1)OC)N(C)C(=O)[C@@H](NC(=O)[C@H](C(C)C)N(C)C)C(C)C` [Compound 31, (S)-2-((S)-2-(Dimethylamino)-3-methylbutanamido)-N-((3R,4S,5S)-3-methoxy-1-((S)-2-((1R,2R)-1-methoxy-2-methyl-3-oxo-3-((S)-1-oxo-3-phenyl-1-(4-(1-(2,2,2-trifluoroacetamido)cyclopropyl)phenylsulfonamido)propan-2-ylamino)propyl)pyrrolidin-1-yl)-5-methyl-1-oxoheptan-4-yl)-N,3-dimethylbutanamide], the EC50 [3] was 31.1 nM.

Work on `CC[C@H](C)[C@@H]([C@@H](CC(=O)N1CCC[C@H]1[C@H](OC)[C@@H](C)C(=O)NS(=O)(=O)c1ccc(C2(NC(=O)C(F)(F)F)CC2)cc1)OC)N(C)C(=O)[C@@H](NC(=O)[C@H](C(C)C)N(C)C)C(C)C` [Compound 29, (S)-2-((S)-2-(Dimethylamino)-3-methylbutanamido)-N-((3R,4S,5S)-3-methoxy-1-((S)-2-((1R,2R)-1-methoxy-2-methyl-3-oxo-3-(4-(1-(2,2,2-trifluoroacetamido)cyclopropyl)phenylsulfonamido)propyl)pyrrolidin-1-yl)-5-methyl-1-oxoheptan-4-yl)-N,3-dimethylbutanamide] yielded an EC50 ([3]; three nights, CellTiter-Glo) of 22.1 nM.

For `CC[C@H](C)[C@@H]([C@@H](CC(=O)N1CCC[C@H]1[C@H](OC)[C@@H](C)C(=O)NS(=O)(=O)c1ccc(C2(N)CC2)cc1)OC)N(C)C(=O)[C@@H](NC(=O)[C@H](C(C)C)N(C)C)C(C)C` [Compound 30, (S)-N-((3R,4S,5S)-1-((S)-2-((1R,2R)-3-(4-(1-Aminocyclopropyl)phenylsulfonamido)-1-methoxy-2-methyl-3-oxopropyl)pyrrolidin-1-yl)-3-methoxy-5-methyl-1-oxoheptan-4-yl)-2-((S)-2-(dimethylamino)-3-methylbutanamido)-N,3-dimethylbutanamide], the EC50 ([3]; three nights, CellTiter-Glo) was > 100 nM.
